Reference: patent publication US10568854B2, “Compositions and methods for treating kabuki syndrome and related disorders” (THE JOHNS HOPKINS UNIVERSITY, priority 2014, dated 2020)
Entries after “also recorded” stand apart in the source; their conditions may differ.

Columns and labels:
[1] = test system: H3K4 trimethylation activity in Kmt2d^+/βGeo and Kmt2d^+/+ MEFs; assay: H3K4me3 indicator in murine embryonic fibroblasts (MEFs); type: cell-based, mouse
Excerpt: An H3K4 trimethylation reporter was also created. This reporter is based on the H3 tail on one end and the TBP associated factor III (TAFIII) homeodomain on the other end; the TAFIII homeodomain only identifies and binds to trimethylated K4 on H3. When the H3K4 site gets trimethylated, the TAFIII homeodomain can bind to the modified H3 tail and bring the two parts of the separated GFP in close proximity. The activity of the epigenetic modification system can be quantified through fluorescence.
Epigenetic reporter alleles: Epigenetic reporter alleles were synthesized (OriGene, Rockville, Md.) using published sequences for component elements (Baird et al. (1999) Proc. Nail. Acad. Sci. 96:11241-6; Souslova et al. (2007) BMC Biotechnol. 7:37). Single nucleotide mutations were created using the QuickChange Lightening kit (Agilent Technologies Inc, Santa Clara, Calif.). For H4ac indicator, K5R, K8R, K12R, K16R and K20R (MUT indicator) were introduced. For H3K4me3 indicator, K4Q and D890A/W891A and M882A (three separate constructs) were introduced. For transient transfections, mouse embryonic fibroblasts (see below) were transfected with Fugene HD (Promega, Madison, Wis.), 48 hours prior to FACS. […] For drug stimulation, drug was added to the media 24 hours prior to FACS. For stable transfections in T293 (American Type Culture Collection) cells, 10 μg/ml of Blastocidin (Life Technologies, Carlsbad, Calif.) was added to the media for several weeks. For stable transfection in MEFs, the reporter was transferred to a ViraPower Lentiviral Expression System (Life Technologies, Carlsbad, Calif.). After selection with Blastocidin, the drug of interest was added 24 hours prior to FACS. SAHA, AR-42 and MS275 were purchased from Selleck (Selleck Chemicals, Houston, Tex.). […] FACS data were analyzed using FlowJo (Tree Star Inc, Ashland, Oreg.). A plasmid expressing HDAC3 was acquired from Addgene (Cambridge, Mass., plasmid 13819) and transfected into a stable cell line carrying the H4 acetyl reporter allele.

[2] = test system: genome-wide H3K4me3 in spleen cells; assay: ChIP-seq of H3K4me3 in spleen cells; type: in vivo, mouse; details: 10 mg/kg/day, Kmt2d^+/βGeo mice
Description: ChIP-seq: Spleens were dissected from eight mice, four from each kmt2d genotype (+/βGeo or +/+) where half of each genotype was treated with AR-42 and half with vehicle only. Spleens were minced and passed through a […] cell strainer to obtain single cell suspensions. 10 million cells were used for each ChIP-seq experiment following the native chromatin immunoprecipitation protocol, as previously described (Gilfillan et al. (2012) BMC Genomics 13:645), using a ChIP-grade antibody against H3K4me3 (9727, Cell Signaling Technology, Beverly, Mass.).
ChIP-seq data analysis: Sequencing was performed using a MiSeq system (Illumina, San Diego, Calif.). 4.8-9.6 million paired-end 26 by reads were obtained per sample (Table 2; nReads=number of reads, alignRate=fraction aligned to genome; FRIP=fraction of reads in peaks). Reads were aligned to the m. musculus genome, version mm10, using Bowtie 2 (Langmead and Salzberg (2012) Nat. Methods. 9: 357-9). Each sample was examined with regard to alignment rate as well as FRIP (fraction of reads in peaks), a measure of the ChIP efficiency (Table 2). […] For analysis, reads were merged into one meta-sample and peak calling was performed using MACS version 1.4.2 (Zhang et al. (2008) Genome Biol. 9: R137). […] This created a peak by sample matrix of read counts. […] Fold change and overall abundance was calculated as per edgeR. […]

**Q.** Which results are given for `CC(C)[C@H](C(=O)Nc1ccc(C(=O)NO)cc1)c1ccccc1` [AR-42, (S)—N-hydroxy-4-(3-methyl-2-phenylbutanamido)benzamide]?
**A.** dose at which Kmt2d^+/βGeo MEFs achieve untreated wild-type levels of H3K4me3 indicator activity ([1]; Kmt2d^+/βGeo MEFs): 5 µM; H3K4 trimethylation activity ([1]; Kmt2d^+/βGeo cells treated with HDAC inhibitor): enhanced; H3K4me3 indicator activity in MEFs ([1]; both genotypes (Kmt2d^+/βGeo, Kmt2d^+/+)): dose-dependent response; genome-wide H3K4me3 (ChIP-seq) [2]: genome-wide increase in H3K4me3; also recorded: improved
